# Laboratory results taken from US5665745A, “Heterocyclic compounds and their preparation and use” (Eli Lilly and Company, priority 1995, dated 1997).
# Where two headings read alike, the source gives them in different places.
# Tests used:
# [1] = target: T1, muscarinic receptors (M1 -site, pirenzepine sensitive site) (Rattus norvegicus, UniProt P08482); assay: inhibition of ^3 HPRZ (pirenzepine, [N-methyl-^3 H]) binding to rat cerebral cortex membranes; set-up: species or system rat (male Wistar
# T1 construct: from tissue; host or cells: cerebral cortex membranes of male Wistar rats
# T1 sequence (P08482 1-460): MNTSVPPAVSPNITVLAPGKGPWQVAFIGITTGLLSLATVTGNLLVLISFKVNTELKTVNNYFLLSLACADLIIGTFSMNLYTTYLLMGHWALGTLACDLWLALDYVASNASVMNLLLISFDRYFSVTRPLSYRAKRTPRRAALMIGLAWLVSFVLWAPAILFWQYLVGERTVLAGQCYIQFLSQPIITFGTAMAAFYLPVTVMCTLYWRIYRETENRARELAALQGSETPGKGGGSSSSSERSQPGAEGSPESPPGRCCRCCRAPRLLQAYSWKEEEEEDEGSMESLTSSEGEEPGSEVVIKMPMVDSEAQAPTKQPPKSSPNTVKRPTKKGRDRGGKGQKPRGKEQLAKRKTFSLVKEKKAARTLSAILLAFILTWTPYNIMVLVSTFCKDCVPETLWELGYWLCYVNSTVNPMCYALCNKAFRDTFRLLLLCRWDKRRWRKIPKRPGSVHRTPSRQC
# Protocol: Furthermore the pharmacological properties of the compounds of the invention can also be illustrated by determining their capability to inhibit ^3 HPRZ (pirenzepine, [N-methyl-^3 H]) binding to rat cerebral cortex membranes.
# Pirenzepine binds selectively to subtype of muscarinic receptors. Historically the type is named the M1 -site, whereas pirenzepine sensitive site would be more appropriate.
# (§1) All preparations are performed at 0°-4° C. unless otherwise indicated. Fresh cortex (0.1-19) from male Wistar rats (150-200 g) is homogenized for 5-10 s in 10 mL 20 mM Hepes pH: 7.4, with an Ultra-Turrax homogenizer. The homogenizer is rinsed with 2×10 mL of buffer and the combined suspension centrifuged for 15 min. at 40,000×g. The pellet is washed three times with buffer. In each step the pellet is homogenized as before in 3×10 mL of buffer and centrifuged for 10 min. at 40,000×g.
# The final pellet is homogenized in 20 mM Hepes pH: 7.4 (100 mL per g of original tissue) and used for binding assay. Aliquots of 0.5 mL is added 20 μl of test solution and 25 μL of ^3 HPRZ (1.0 nM, final conc.), mixed and incubated for 60 min. at 20° C. Non-specific binding is determined in triplicate using atropine (1 ,μg/mL, final conc.) as the test substance. After incubation samples are added 5 mL of ice-cold buffer and poured directly onto Whatman GF/C glass fiber filters under suction and immediately washed 2 times with 5 mL of ice-cold buffer. The amount of radioactivity on the filters are determined by conventional liquid scintillation counting. Specific binding is total binding minus non-specific binding.
# Test substances are dissolved in 10 mL water, at a concentration of 0.22 mg/mL.
# (§2) The test value will be given as IC50 (the concentration (nM) of the test substance which inhibits the specific binding of ^3 HPRZ by 50%). IC50 =(applied test substance concentration) x(Cx /Co -Cx)nM where Co is specific binding in control assays and Cx is the specific binding in the test assay. (The calculations assume normal mass-action kinetics).
# [2] = target: muscarinic acetylcholine receptors; assay: inhibition of specific binding of ^3 H-Oxotremorine-M (^3 H-Oxo); set-up: species or system rat (male Wistar; conditions: ^3 H-Oxotremorine 1.0 nM, rat cortex, 30 min. at 25° C.
# From the text: The pharmacological properties of the compounds of the invention can be illustrated by determining their capability to inhibit the specific binding of ^3 H-Oxotremorine-M (^3 H-Oxo). Birdsdall N. J. M., Hulme E. C., and Burgen A. S. V. (1980). "The Character of Muscarinic Receptors in Different Regions of the Rat Brain" Proc. Roy. Soc. London (Series B) 207,1.
# ^3 H-Oxo labels muscarinic receptor in the CNS (with a preference for agonist domains of the receptors). Three different sites are labeled by ^3 H-Oxo. […] Using the present experimental conditions only the high and medium affinity sites are determined.
# The inhibitory effects of compounds on ^3 H-oxo binding reflects the affinity for muscarinic acetylcholine receptors.
# as §1, with “cortex (0.1-1 g)” for “cortex (0.1-19)”, “rats (150-250” for “rats (150-200”, “5-10 seconds” for “5-10 s”, “[…]” for “20 mM”, “with 10” for “with 2×10”, “in 2×10” for “in 3×10”
# The final pellet is homogenized in 20 mM Hepes pH: 7.4 (100 mL per g of original tissue) and used for binding assay. Aliquots of 0.5 mL is added 25 μL of test solution and 25 μL of ^3 H-Oxotremorine (1.0 nM, final concentration) mixed and incubated for 30 min. at 25° C. Non-specific binding is determined in triplicate using arecoline ([…], final concentration) as the test substance. After incubation samples are added 5 mL of ice-cold buffer and poured directly onto Whatman GF/C glass fiber filters under suction and immediately washed 2 times with 5 mL of ice-cold buffer. The amount of radioactivity on the filters are determined by conventional liquid scintillation counting. Specific binding is total binding minus non specific binding.
# as §2, with “Test substances are dissolved in 10 mL water (if necessary heated on a steam-bath for less than 5 min.) at a concentration of 2.2 mg/mL. […] The test” for “The test”, “of ^3 H-oxo by 50%).” for “of ^3 HPRZ by 50%).”
# [3] = ^3 HPRZ 1.0 nM, rat cortex, 60 min. at 20° C., read-out: ^3 HPRZ IC50 (head from b208 on: Pir IC-50)
SMILES,"IC50 [1, 3]",IC50 [2],IC50 [1]
"Clc1nsnc1O[C@@H]1CN2CCC[C@@H]1C2 (relative stereo) [Compound 47, (±)-exo-3-Chloro-4-(1-azabicyclo[3.2.1]octyl-6-oxy)-1,2,5thiadiazole]",,54 nM,23 nM
"CCCCCCSc1nsnc1OC1CN2CCC1CC2 (racemic) [Compound 17, (±)-3-Hexylthio-4-(1-azabicyclo[2.2.2]octyl-3-oxy)-1,2,5-thiadiazole]",,5.2 nM,8.8 nM
"FC(F)(F)CCCOc1nsnc1OC1CC2CCC1NC2 (mixture of isomers) [Compound 160, (±)-exo-3-(4,4,4-Trifluorobutyloxy)-4-(2-azabicyclo[2.2.2]octyl-6-oxy)-1,2,5-thiadiazole]",6.3 nM,14 nM,
"CCCCOc1nsnc1SCCN(C)C [Compound 36, 3-Butyloxy-4-(2-(dimethylamino)ethylthio)-1,2,5-thiadiazole]",217 nM,204 nM,
"CCCCCOc1nsnc1OC1CN2CCC1CC2 (racemic) [Compound 9, (±)-3-Pentyloxy-4-(1-azabicyclo[2.2.2]octyl-3-oxy)-1,2,5-thiadiazole]",,11 nM,25 nM
"C/C=C/COc1nsnc1OC1CN2CCC1CC2 (mixture of isomers) [Compound 109, (±)-3-(trans-2-butenyloxy)-4-(1-azabicyclo[2.2.2]octyl-3-oxy)-1,2,5-thiadiazole]",,12.3 nM,58.3 nM
"CCCCOc1nsnc1OCC[N+](C)(C)C [Compound 35, 3-Butyloxy-4-(2-(trimethylamino)ethoxy)-1,2,5-thiadiazole iodide]",33 nM,23 nM,
"c1ccc2c(c1)Sc1ccccc1N2CCCSc1nsnc1OC1CN2CCC1CC2 (racemic) [Compound 151, (±)-3-(3-[N-phenothiazinyl]propylthio)-4-(1-azabicyclo[2.2.2]octyl-3-oxy)-1,2,5-thiadiazole]",2700 nM,2070 nM,
"FC(F)(F)CCCSc1nsnc1OC1CN2CCC1CC2 (racemic) [Compound 154, (±)-3-(4,4,4-trifluorobutylthio)-4-(1-azabicyclo[2.2.2]octyl-3-oxy)-1,2,5-thiadiazole]",,11 nM,6.3 nM
"c1csc(CCCSc2nsnc2OC2CN3CCC2CC3)c1 (racemic) [Compound 21, (±)-3-(3-(2-Thienyl)propylthio)-4-(1-azabicyclo[2.2.2]-octyl-3-oxy-1,2,5-thiadiazole]",,4.4 nM,4 nM
"Fc1ccc(OCCSc2nsnc2OC2CN3CCC2CC3)cc1 (racemic) [Compound 207, (±)-3-(2-[4-fluorophenoxy]ethylthio)-4-(1-azabicyclo[2.2.2]octyl-3-oxy)-1,2,5-thiadiazole]",,2.4 nM,6 nM
"CCCCSc1nsnc1OC1CCCN(C)C1 (racemic) [Compound 29, (±)-3-Butylthio-4-(1-methyl-3-piperidyloxy)-1,2,5-thiadiazole]",20 nM,34 nM,
"CSCCc1nsnc1OC1CN2CCC1CC2 (racemic) [Compound 99, (±)-3-(2-Methylthioethyl)-4-(1-azabicyclo[2.2.2]octyl-3-oxy)-1,2,5-thiadiazole]",,41 nM,70 nM
"CCCCSc1nsnc1O[C@@H]1CCC[C@H]1N(C)C (racemic) [Compound 143, (±)-trans-3-Butylthio-4-(2-dimethylaminocyclopentyloxy)-1,2,5-thiadiazole]",637 nM,1400 nM,
"c1csc(-c2ccc(Sc3nsnc3OC3CN4CCC3CC4)s2)c1 (racemic) [Compound 57, (±)-3-(2-(5-(2-Thienyl)thienyl)thio)-4-(1-azabicyclo [2.2.2]octyl-3-oxy)-1,2,5-thiadiazole]",,88 nM,37 nM
"CCCCSc1nsnc1OC1CCCN2CCCC12 (mixture of isomers) [Compound 142, (±)-cis-3-Butylthio-4-(1-azabicyclo[4.3.0]nonyl-5-oxy)-1,2,5-thiadiazole]",74 nM,38 nM,

# Second part, led by results:
"IC50 [1, 3]",IC50 [2],SMILES,IC50 [1]
1.15 nM,1.1 nM,"CCCCOc1nsnc1O[C@H]1CN2CCC[C@@H]1C2 (relative stereo) [Compound 71, 3-(1-Butyloxy)-4-[endo-(+,-)-6-(1-azabicyclo[3.2.1]octyloxy)]-1,2,5-thiadiazole]",
0.6 nM,1 nM,"c1ccc(OCCSc2nsnc2O[C@@H]2CN3CCC[C@H]2C3)cc1 (relative stereo) [Compound 156, (±)-endo-3-(2-Phenoxyethylthio)-4-(1-azabicyclo[3.2.1]octyl-6-oxy)-1,2,5-thiadiazole]",
> 1000 nM,> 1000 nM,"CCCCOc1nsnc1O[C@@H]1CCC[C@@H]1N [Compound 135, 3-Butyloxy-4-(cis-1R-2-aminocyclopentanoxy)-1,2,5-thiadiazole]",
9.9 nM,2.6 nM,"COCCOc1nsnc1O[C@@H]1CN2CCC[C@H]1C2 (relative stereo) [Compound 183, (±)-endo-3-(2-Methoxyethoxy)-4-(1-azabicyclo[3.2.1]octyl-6-oxy)-1,2,5-thiadiazole]",
2.8 nM,0.59 nM,"C#CCCOc1nsnc1O[C@@H]1CN2CCC[C@H]1C2 (relative stereo) [Compound 186, (±)-endo-3-(3-Butynyloxy)-4-(1-azabicyclo[3.2.1]octyl-6-oxy)-1,2,5-thiadiazole]",
2.1 nM,7.39 nM,"CCCCSc1nsnc1O[C@@H]1CN2CCC[C@H]1C2 [Compound 137, (5S, 6S)-endo-3-Butylthio-4-(1-azabicyclo[3.2.1]octyl-6-oxy)-1,2,5-thiadiazole]",
6.42 nM,2.73 nM,"CCCCCCOc1nsnc1O[C@@H]1CN2CCC[C@H]1C2 (relative stereo) [Compound 136, (±)-endo-3-Hexyloxy-4-(1-azabicyclo[3.2.1]octyl-6-oxy)-1,2,5-thiadiazole]",
7.5 nM,4.9 nM,"Fc1ccc(COc2nsnc2O[C@@H]2CN3CCC[C@H]2C3)c(F)c1 (relative stereo) [Compound 195, (±)-endo-3-(2,4-Difluorobenzyloxy)-4-(1-azabicyclo[3.2.1]octyl-6-oxy)-1,2,5-thiadiazole]",
